Data reported in US9376675B2, “Method for preserving components of pancreatic juice in a sample, and kit for preserving components of pancreatic juice in a sample” (priority 2012, dated 2016).

Columns and labels:
[1] = system: S100P in human pancreatic juice specimens; experiment: Room temperature storage stability of S100P in human clinical pancreatic juice specimens versus freeze storage, S100P ELISA (Example 3); conditions: seven human clinical specimens; 25° C. for 16 hours; AEBSF 4 mM, PMSF 1 mM
Protocol: With a view to improving the storage performance of pancreatic proteins further, it was studied whether the storage stability of S100P was influenced by the combined use of the sulfonyl fluoride-containing sulfone-based compound and TLCK, that is, another […] compound. Seven human clinical specimens were used.
Described specifically, sample solutions were prepared as follows: (1) Sample Solution 1: AEBSF, obtained by adding AEBSF (final concentration: 4 mM) to the human clinical specimens. (2) Sample Solution 2: AEBSF+PMSF, obtained by adding AEBSF (final concentration: 4 mM) and PMSF (final concentration: 1 mM) to the human clinical specimens. (3) Sample Solution 3: AEBSF+PMSF+Aprotinin, obtained by adding AEBSF (final concentration: 4 mM), PMSF (final concentration: 1 mM) and Aprotinin (final concentration: 3 μM) to the human clinical specimens. […]
The concentration of S100P is plotted along the ordinate, while Sample Solutions 1 to 5 (“AEBSF”, “AEBSF+PMSF”, “AEBSF+PMSF+Aprotinin”, “AEBSF+PMSF+TPCK”, and “AEBSF+PMSF+TLCK” in the graph) of the human pancreatic juice specimens 1 to 7 are plotted along the abscissa. […] As a result, in the sample solutions after frozen storage, S100P was detected, though varying in amount, from all the human pancreatic juice specimens irrespective of the kind of the protease inhibitor added. […]

[2] = system: S100P in human clinical pancreatic juice specimens; experiment: Room temperature storage stability of added S100P standard preparation in human clinical pancreatic juice specimens, S100P ELISA (Example 2); conditions: 25 ng/mL S100P standard added; four human clinical pancreatic juice specimens; 25° C. for 16 hours; AEBSF 4 mM, PMSF 1 mM
Description: While attention was paid to the sulfone-based compounds found to have a high inhibitory effect against digestive enzymes in pancreatic juice in Example 1, the effect of the various sulfone-based compounds on the room temperature stability of S100P (calcium-binding protein) known as a marker protein of pancreatic cancer was studied. This means that by using four human clinical pancreatic juice specimens, whether the concentration of S100P changed or not after addition of a S100P protein standard preparation was studied before and after room temperature storage.
Described specifically, sample solutions were prepared as follows: (1) Sample Solution 1: containing no inhibitor, obtained by mixing 25 ng/mL of an S100P (standard preparation) solution with the human clinical specimens, respectively. (2) Sample Solution 2: AEBSF, obtained by adding AEBSF (final concentration: 4 mM) to Sample Solution 1. […] Then, S100P was detected using CircuLex S100P ELISA Kit (product of Cyclex, Catalogue Number: CY-8060) from solutions obtained by carrying out 10-fold dilution of the sample solutions with a buffer attached to CircuLex S100P ELISA Kit, respectively. As a control, S100P was detected similarly from Sample Solution 1 immediately after preservation (that is, before room temperature storage). […]

[3] = system: S100P in human pancreatic juice specimens 1 and 2; experiment: Room temperature storage stability of added S100P standard preparation in human pancreatic juice specimens 1 and 2, S100P ELISA (Example 4); conditions: 25 ng/mL S100P standard added (exogenous), 25° C. for 16 hours, AEBSF 4 mM, PMSF 1 mM, TLCK 1 mM
Protocol: An effect of a protease inhibitor for storage stability of S100P in a pseudo artificial pancreatic juice and that for storage stability of S100P in a human clinical specimen were compared. As a S100P-containing pseudo artificial pancreatic juice, a solution obtained by adding S100P (standard preparation) to a pancreatin solution to give a concentration of 25 ng/mL was used.
More specifically, sample solutions were prepared as follows: (1) Sample Solution 1: containing no inhibitor, obtained by mixing 25 ng/mL of an S100P (standard preparation) solution with the two human clinical specimens (human pancreatic juice specimens 1 and 2) used in Example 3 and the pseudo artificial pancreatic juice. […]
The concentration of S100P is plotted along the ordinate, while Sample Solutions 1 to 4 using the human pancreatic juice specimens 1 and 2 and the S100P-containing pseudo artificial pancreatic juice (“Without inhibitor”, “AEBSF”, “AEBSF+PMSF”, and “AEBSF+PMSF+TLCK” in the graph) are plotted along the abscissa. […] As a result, in the sample solutions after freeze storage, S100P was detected from both the human pancreatic juice specimen and the pancreatin solution. On the other hand, with regard to the sample solutions after room temperature storage, no S100P was detected from the pancreatin solutions irrespective of the presence or absence or the kind of the protease inhibitor.

[4] = system: Pancreatin (activated pancreatic enzyme); experiment: Protease activity of pancreatin solution (pseudo artificial pancreatic juice), EnzCheck Protease Assay Kit with fluorescently-labeled casein; type: biochemical, pig; conditions: final concentration within range recommended by manufacturers; 37° C. for 2 hours; Ex/Em=485/535 nm
Protocol: A protease inhibitor screen was performed to find an inhibitor targeting a serine protease and having a high inhibitory effect against pancreatic juice. The protease inhibitors used were aprotinin (product of Roche), leupeptin (product of Roche), PMSF (product of Roche), AEBSF (product of Roche), p-APMSF (product of SIGMA), camostat mesilate (Foipan: product of Wako Pure Chemical Industries), gabexate mesilate (FOY: product of Wako Pure Chemical Industries), TLCK (product of SIGMA), and TPCK (product of SIGMA). It is to be noted that TPCK is an amino acid chloromethyl ketone having inhibitory activity against chymotrypsin but having no inhibitory activity against trypsin.
“Pancreatin”, a digestive enzyme prepared from the pig pancreas in which a pancreatic enzyme was present in activated form was used as pseudo artificial pancreatic juice. After addition of protease inhibitors in an amount so that the final concentration thereof would fall within a concentration range recommended by the manufacturers of the inhibitors, the protease activity was measured. The protease activity was measured using EnzCheck Protease Assay Kits (product of Molecular Probes). Described specifically, fluorescently-labeled casein attached to a kit was added to a pancreatin solution containing each protease inhibitor. After incubation at 37° C. for 2 hours, the amount of fluorescence was measured at a fluorescence wavelength of Ex/Em=485/535 nm. As a control, the protease activity of a sample solution (containing no inhibitor) obtained by directly adding fluorescently-labeled casein to pancreatin was measured.
The amount of fluorescence plotted along the ordinate represents the amount of degraded casein and it was approximated as the value of protease activity. The protease inhibitors contained respectively in the pancreatin solutions and final concentrations thereof are plotted along the abscissa. […] These inhibitors are each a sulfonyl fluoride-containing sulfone-based compound.

| Compound | S100P detection amount after room temperature storage compared with freeze storage [1] | S100P concentration after room temperature storage [2] | detection amount of S100P after room temperature storage [3] | inhibitory effect on protease activity (amount of fluorescence = degraded casein) of pancreatin solution [4] |
| --- | --- | --- | --- | --- |
| NCCc1ccc(S(=O)(=O)F)cc1 [AEBSF, 4-(2-aminoethyl)-benzenesulfonyl fluoride] | the detection amount was very small compared with that after freeze storage | S100P was detected from any of the pancreatic juice specimens | detection amount of S100P is greater | markedly high inhibitory effect |
| O=S(=O)(F)Cc1ccccc1 [PMSF, phenylmethylsulfonyl fluoride] | – | – | – | markedly high inhibitory effect |
| Cc1ccc(S(=O)(=O)N[C@@H](CCCCN)C(=O)CCl)cc1 [TLCK, N-a-tosyl-L-lysine chloromethyl ketone] | – | – | – | not effective inhibitors by themselves |
| Cl.N=C(N)c1ccc(CS(=O)(=O)F)cc1 [p-APMSF, p-amidinophenylmethanesulfonyl fluoride hydrochloride] | – | – | – | markedly high inhibitory effect |
